Data from patent US6183953A, “Chromosomal mutagenesis in Pichia methanolica” (ZymoGenetics, Inc., priority 1997, dated 2001).

Test system: P. methanolica cells (strain CBS6515, UV-mutagenized)
Experiment: Nystatin enrichment for auxotrophic mutants; titering of nystatin-treated versus control cells for colony forming units
Assay type: cell-based, Pichia methanolica
Details: 1 mg nystatin added to the remainder of a 500 ml culture in minimal broth with 5 g/L ammonium sulfate, incubated 1 hour with shaking
Experimental: Large-scale mutagenesis was then carried out using a 2-second UV exposure to provide about 20% killing. Cells were plated at approximately 10^4 cells/plate onto eight YEPD plates that were supplemented with 100 mg/L each of uracil, adenine, and leucine, which were added to supplement the growth of potential auxotrophs having the cognate deficiencies. Following UV exposure the plates were wrapped in foil and incubated overnight at 30° C. The following day the colonies on the plates (^~ 10^5 total) were resuspended in water and washed once with water. An amount of cell suspension sufficient to give an OD600 of 0.1-0.2 was used to inoculate 500 ml of minimal broth made with yeast nitrogen base without amino acids or ammonia, supplemented with 1% glucose and 400 μg/L biotin. The culture was placed in a 2.8 L baffled Bell flask and shaken vigorously overnight at 30° C. The following day the cells had reached an OD600 of ^~ 1.0-2.0. The cells were pelleted and resuspended in 500 ml of minimal broth supplemented with 5 g/L ammonium sulfate. The cell suspension was placed in a 2.8 L baffled Bell flask and shaken vigorously at 30° C. for 6 hours. 50 ml of the culture was set aside in a 250-ml flask as a control, and to the remainder of the culture was added 1 mg nystatin (Sigma Chemical Co., St. Louis, Mo.) to select for auxotrophic mutants (Snow, Nature 211:206-207, 1966). […]

Q: For `C[C@@H]1[C@H](O)[C@@H](C)/C=C/C=C/CC/C=C/C=C/C=C/C=C/C(O[C@H]2O[C@H](C)[C@@H](O)[C@H](N)[C@@H]2O)CC2O[C@](O)(CC(O)C(O)CCC(O)CC(O)CC(O)CC(=O)O[C@H]1C)CC(O)C2C(=O)O` (stereo partly shown) [nystatin], which “decrease in the number of viable cells (colony forming units), factor versus control cells” value is on record?
A: 10^4
